Results as given in patent US6461997B1, “Triazole sulfones having herbicidal activity” (Monsanto Technology LLC, priority 1999, dated 2002).

Columns and labels:
[1] = system: AGSST (creeping bentgrass); experiment: Post-emergence herbicidal activity, cool season; assay type: in vivo, Agrostis stolonifera; conditions: abraded plants sprayed at 300, 100, 30 and 10 g/ha; about 14 days after treatment
Experimental: (§1) In another set of tests, the post-emergence activity of compounds of this invention was evaluated on the cool season species listed above. The following procedure was used.
(§2) A pre-prepared topsoil mixture (described above) was placed in a pot and compacted to a depth of 1.0 to 1.25 cm from the top of the pot. Seeds of each of several monocotyledonous and dicotyledonous annual plant species were placed on top of the soil. The seeds were covered with a mixture of 50% topsoil and 50% Rediearth™ in sufficient quantity to level-fill the pots. The pots were then placed on a greenhouse bench and subirrigated as needed.
(§3) When plants growing from the seeds had emerged and reached a suitable growth stage for post-emergence treatment, typically 9 to 14 days after planting, above-ground parts of the plants were subjected to a pre-treatment involving abrasion to create greater opportunity for foliar uptake of subsequently applied compounds. Abrasion was performed using garnet 200w particles applied with a Sears Craftsman hand-held sandblaster operated at approximately 850 kPa (50 psig) pressure.
(§4) A known amount of each test compound dissolved or suspended in an appropriate organic solvent was diluted with a 50:50 mix of acetone and water and applied to the plants by spraying with a standard spray nozzle in a spray volume of […] at a spray pressure of 511 kPa (30 psig). Only the compounds of Examples 1, 8-15 and 17-22 were included in post-emergence tests. Application rates for these compounds were 300, 100, 30 and 10 g/ha. Control plants were abraded but not sprayed.
(§5) After treatment the plants were placed in a greenhouse with an 18/13° C. day/night temperature regime and were subsequently watered as needed for growth. Approximately 14 days after treatment, the plants were observed and herbicidal efficacy recorded as percent inhibition by comparison with control plants. GR80 values were assigned for each compound as described above for the pre-emergence tests.

[2] = system: SASKR (russian thistle); experiment: Pre-emergence herbicidal activity, cool season; assay type: in vivo, Salsola kali; conditions: lowest tested rate with 80% or greater inhibition; rates 300, 100, 30, 10 g/ha; about 14 days
Summary of the method: (§6)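 Seeds sown in sterilised fertilised topsoil received surface-applied compound in 50:50 acetone/water, typically at 300, 100, 30 and 10 g/ha, then greenhouse-grown at 30/21° C (warm-season species) or 18/13° C (cool-season species). Percent inhibition versus untreated plants was scored at about 14 days, giving GR80; an asterisk marks activity short of 80% at the top rate.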

[3] = system: ALOMY (blackgrass); experiment: Post-emergence herbicidal activity, cool season; assay type: in vivo, Alopecurus myosuroides; conditions: abraded plants sprayed at 300, 100, 30 and 10 g/ha; about 14 days after treatment
Experimental: as §1, §2, §3, §4, §5

[4] = system: STEME (common chickweed); experiment: Pre-emergence herbicidal activity, cool season; assay type: in vivo, Stellaria media; conditions: lowest tested rate with 80% or greater inhibition; rates 300, 100, 30, 10 g/ha; about 14 days
Summary of the method: as §6

[5] = system: AVEFA (wild oat); experiment: Post-emergence herbicidal activity, cool season; assay type: in vivo, Avena fatua; conditions: abraded plants sprayed at 300, 100, 30 and 10 g/ha; about 14 days after treatment
Experimental: as §1, §2, §3, §4, §5

[6] = system: AGRRE (quackgrass (seedling)); experiment: Post-emergence herbicidal activity, cool season; assay type: in vivo, Elymus repens; conditions: abraded plants sprayed at 300, 100, 30 and 10 g/ha; about 14 days after treatment
Experimental: as §1, §2, §3, §4, §5

[7] = system: SINAR (wild mustard); experiment: Pre-emergence herbicidal activity, cool season; assay type: in vivo, Sinapis arvensis; conditions: lowest tested rate with 80% or greater inhibition; rates 300, 100, 30, 10 g/ha; about 14 days
Summary of the method: as §6

[8] = system: ECHCG (barnyardgrass); experiment: Pre-emergence herbicidal activity, warm season; assay type: in vivo, Echinochloa crus-galli; conditions: GR80 = lowest tested rate (300, 100, 30, 10 g/ha) with 80% or greater inhibition; approx. 14 days after treating; 30/21° C.
Summary of the method: (§7)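 Activity is expressed as the rate giving 80% inhibition, with 300, 100, 30 and 10 g/ha typically tested. An asterisk marks activity short of 80% at the top rate. Warm-season grasses were held at 30/21 °C; cool-season blackgrass and wild buckwheat at 18/13 °C; scoring at about 14 days.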

[9] = system: LAMPU (purple deadnettle); experiment: Pre-emergence herbicidal activity, cool season; assay type: in vivo, Lamium purpureum; conditions: lowest tested rate with 80% or greater inhibition; rates 300, 100, 30, 10 g/ha; about 14 days
Summary of the method: as §6

[10] = system: GALAP (catchweed bedstraw); experiment: Post-emergence herbicidal activity, cool season; assay type: in vivo, Galium aparine; conditions: abraded plants sprayed; GR80 = lowest tested rate (300, 100, 30, 10 g/ha) with 80% or greater inhibition; approx. 14 days after treatment; 18/13° C.
Experimental: as §1, §2
as §3, with “pressure. […]” for “pressure.”
as §5, with “GR80 values were assigned for each compound as described above for the pre-emergence tests.” left out

[11] = system: SORVU (shattercane); experiment: Pre-emergence herbicidal activity, warm season; assay type: in vivo, Sorghum vulgare; conditions: GR80 = lowest tested rate (300, 100, 30, 10 g/ha) with 80% or greater inhibition; approx. 14 days after treating; 30/21° C.
Summary of the method: as §7

[12] = system: BROTE (downy brome); experiment: Post-emergence herbicidal activity, cool season; assay type: in vivo, Bromus tectorum; conditions: abraded plants sprayed at 300, 100, 30 and 10 g/ha; about 14 days after treatment
Experimental: as §1, §2, §3, §4, §5

[13] = system: GALAP (catchweed bedstraw); experiment: Pre-emergence herbicidal activity, cool season; assay type: in vivo, Galium aparine; conditions: lowest tested rate with 80% or greater inhibition; rates 300, 100, 30, 10 g/ha; about 14 days
Summary of the method: as §6

[14] = system: PANMI (wild proso millet); experiment: Pre-emergence herbicidal activity, warm season; assay type: in vivo, Panicum miliaceum; conditions: GR80 = lowest tested rate (300, 100, 30, 10 g/ha) with 80% or greater inhibition; approx. 14 days after treating; 30/21° C.
Summary of the method: (§8)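 Read-out: GR80, derived from percent growth inhibition relative to untreated plants at roughly 14 days after planting and treatment. Compounds went onto the surface of freshly seeded soil at 10–300 g/ha. Day/night regimes were 30/21 °C for millet and crabgrass, 18/13 °C for blackgrass and buckwheat.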

[15] = system: SETVI (green foxtail); experiment: Post-emergence herbicidal activity, cool season; assay type: in vivo, Setaria viridis; conditions: abraded plants sprayed at 300, 100, 30 and 10 g/ha; about 14 days after treatment
Experimental: as §1, §2, §3, §4, §5

[16] = system: LOLMG (annual ryegrass); experiment: Post-emergence herbicidal activity, cool season; assay type: in vivo, Lolium multiflorum; conditions: abraded plants sprayed at 300, 100, 30 and 10 g/ha; about 14 days after treatment
Experimental: as §1, §2, §3, §4, §5

[17] = system: AGSST (creeping bentgrass); experiment: Pre-emergence herbicidal activity, cool season; assay type: in vivo, Agrostis stolonifera; conditions: GR80 = lowest tested rate (300, 100, 30, 10 g/ha) with 80% or greater inhibition; approx. 14 days after treating; 18/13° C.
Summary of the method: as §6

[18] = system: AEGCY (jointed goatgrass); experiment: Post-emergence herbicidal activity, cool season; assay type: in vivo, Aegilops cylindrica; conditions: abraded plants sprayed at 300, 100, 30 and 10 g/ha; about 14 days after treatment
Experimental: as §1, §2, §3, §4, §5

[19] = system: VERPE (creeping speedwell); experiment: Pre-emergence herbicidal activity, cool season; assay type: in vivo, Veronica persicaria; conditions: lowest tested rate with 80% or greater inhibition; rates 300, 100, 30, 10 g/ha; about 14 days
Summary of the method: as §6

[20] = system: POLCO (wild buckwheat); experiment: Pre-emergence herbicidal activity, cool season; assay type: in vivo, Polygonum convolvulus; conditions: lowest tested rate with 80% or greater inhibition; rates 300, 100, 30, 10 g/ha; about 14 days
Summary of the method: as §8

[21] = system: BRAPP (broadleaf signalgrass); experiment: Pre-emergence herbicidal activity, warm season; assay type: in vivo, Brachiaria platyphylla; conditions: GR80 = lowest tested rate (300, 100, 30, 10 g/ha) with 80% or greater inhibition; approx. 14 days after treating; 30/21° C.
Summary of the method: as §7

SMILES: CCN(CC)C(=O)n1cnc(S(=O)(=O)C(F)(F)SCCO)n1 [Example 12, 1-(N,N-diethylcarbamoyl)-3-[(2-hydroxyethylthio)difluoromethylsulfonyl]-1,2,4-triazole]
- Post-emergence activity GR80, AGSST [1]: [empty]
- Pre-emergence activity GR80, SASKR [2]: [empty]
- Post-emergence activity GR80, ALOMY [3]: [empty]
- Pre-emergence activity GR80, STEME [4]: 300 g/ha
- Post-emergence activity GR80, AVEFA [5]: [empty]
- Post-emergence activity GR80, AGRRE [6]: [empty]
- Pre-emergence activity GR80, SINAR [7]: [empty]
- Pre-emergence activity (GR80) ECHCG [8]: * (activity observed, at least at highest rate, but <80% inhibition)
- Pre-emergence activity GR80, LAMPU [9]: 300 g/ha
- Post-emergence activity (GR80) GALAP [10]: 300 g/ha
- Pre-emergence activity (GR80) SORVU [11]: * (activity observed, at least at highest rate, but <80% inhibition)
- Post-emergence activity GR80, BROTE [12]: [empty]
- Pre-emergence activity GR80, GALAP [13]: [empty]
- Pre-emergence activity (GR80) PANMI [14]: * (activity observed, at least at highest rate, but <80% inhibition)
- Post-emergence activity GR80, SETVI [15]: [empty]
- Post-emergence activity GR80, LOLMG [16]: [empty]
- Pre-emergence activity (GR80) AGSST [17]: 300 g/ha
- Post-emergence activity GR80, AEGCY [18]: [empty]
- Pre-emergence activity GR80, VERPE [19]: [empty]
- Pre-emergence activity GR80, POLCO [20]: [empty]
- Pre-emergence activity (GR80) BRAPP [21]: * (activity observed, at least at highest rate, but <80% inhibition)
